Assay results: patent publication EP0840727B1, “3-HYDROXY-2(1H)-[…] AGENTS” (priority 1995, dated 1997)
Marks after values point to notes of the source that are not given here.

Columns and labels:
Format in all cases: in vivo
[1] = Promoting excretion of 238Pu(IV) in mice by injected ligands; conditions: ligand 30 µmol kg^-1 ip at 1 h after iv ^238Pu(IV) citrate, kill at 24 h
Description: (§1) Animal studies were completed using methods detailed in Radiation Protection Dosimetry, in press, P. W. Durbin et al., "In Vivo Chelation of Am(III), Pu(IV), Np(V) and U(VI) in Mice by TREN-(Me-3,2-HOPO)"; Radiation Protection Dosimetry, 17, No. 1, 1989, p. 351, P. W. Durbin et al., "Removal of ^238Pu(IV) from Mice by Polycatechoylate, -Hydroxamate or -Hydroxypyridinonate Ligands"; Radiation Research, 99, 1984, p. 85, P. W. Durbin et al., "Specific Sequestering Agents for the Actinides ..."; Radiation Research, 99, 1984, p. 106, P. W. Durbin et al., "Removal of Pu and Am from Beagles and Mice ..."; Radiation Research, 81, 1980, p. 170, R. D. Lloyd et al., and P. W. Durbin et al., "Specific Sequestering Agents for the Actinides ...". The foregoing articles are hereby incorporated by reference.
Radionuclides used in the animal studies came from a variety of sources. However, they can be purchased commercially. The ^238Pu(IV) citrate and ^241Am(III) citrate solutions were prepared for animal injection by 8- to 10-fold dilution with 0.14M NaCl (pH 4) of concentrated stock solutions (0.08M sodium citrate buffer) that had been held in frozen storage at Lawrence Berkeley Laboratory (hereinafter LBL) for several years. [The ^238Pu(IV) was originally obtained from D. R. Atherton at the University of Utah Radiobiology Laboratory, Salt Lake City. The ^241Am(III) solution had been obtained many years earlier from the LBL Actinide Chemistry group.]
The novel chelating agents of the present invention and comparative compounds were tested for their effectiveness in promoting excretion ^238Pu(IV) in nice by injected ligands as follows. Mice, in groups of five, each received an intravenous injection of 1850 Bq ^238Pu(IV) in 0.2 mL of citrate buffer. One hour later, 30 µmol/kg of ligand was injected intraperitoneally in 0.5 mL of saline. The mice were killed 24 hours after the Pu injection, frozen, and dissected after partial thawing. The ^238Pu in skeleton, soft tissues, and separated excreta was determined by counting the ^234U L x-rays. Results of removal of ^238Pu(IV) from mice by injected ligands are summarized in Table 3, which also includes data for CaNa3-DTPA and other reference ligands and the Pu-injected controls. […] While the case of multidente 1,2-HOPO and catechoylamide chelating agents, octadentates are always better chelating agents than the corresponding hexadentates and tetradentates.

[2] = Promoting excretion of 238Pu(IV) in mice by orally administered ligands; conditions: of ligand by gavage three minutes after iv ^238Pu(IV); kill at 24 hours
Description: as §1
Radionuclides used in the animal studies came from a variety of sources. However, they can be purchased commercially. […]
The novel chelating agents of the present invention and comparative compounds were tested for their effectiveness in promoting excretion of ^238Pu(IV) by oral administration to mice as follows. […] The ^238Pu(IV) in skeleton, soft tissues, and separated excreta was determined by counting the ^234U L x-rays. […]

[3] = Promoting excretion of U(VI) in mice by injected ligand
Description: as §1
The ^232U was obtained from the Isotope Products Laboratory, Burbank, CA, and ^234,235U was obtained as U metal from long-held LBL storage. The two U sources were combined and dissolved in 6N HNO3, dried, and redissolved in 0.1 N HCl. The daughter radioactivities were removed by elution from a Dowex-50X4 column (22 cm length, 0.7 cm diameter, 1.5 mL·min^-1 flow rate) with 3.2N HCl. The U fractions (previously identified by a trial run with ^234,235U alone) were combined, dried, and redissolved in 0.14M NaCl at pH 5.5.
(§2) One of the comparative chelating agents TREN-Me-3,2-HOPO, was also tested for effectiveness in promoting excretion of ^241Am(III), ^237Np(V), and ^232U(VI) by injection into mice, as follows: Mice, in groups of five, each received an intravenous injection of (a) 1100 Bq of ^241AM(III) in 0.2 mL of citrate buffer, (b) 150 Bq of ^232UO2Cl2 plus 3.6 mg of ^235UO2Cl2 in 0.2 mL of saline, or (c) 200 Bq of ^237NpO2Cl (7.5 mg of ^237NpO2Cl) in 0.2 mL of saline. Three to five minutes later, […] of TREN-Me-3,2-HOPO was injected intraperitoneally in 0.5 mL of saline. The mice were killed 24 hours after the actinide injection, frozen, and dissected after partial thawing. The skeleton, soft tissues, and separated excreta were radioanalyzed by counting the ^241Am gamma rays, or the alpha particles emitted by ^237Np or ^232U (and its ingrowing daughters). Removal of those actinides from mice by injected TREN-Me-3,2-HOPO is summarized in Table 5, which also includes data for mice similarly treated with CaNa3-DTPA and for actinide-injected controls. […] The structure of Am(III)-TREN-Me-3,2-HOPO is considered to resemble that of the Gd(III) complexes (see example 20). Complexation of the fraction of Np(V) that is reduced in vivo to Np(IV) is considered to resemble that of Pu(IV). Complexation of U(VI) is considered to take place through binding to UO2^2+.

[4] = Promoting excretion of 237Np(V) in mice by injected ligand
Description: as §1
The ^237Np(V) was obtained from J. Bucher of the LBL Actinide Chemistry group as NpO2Cl in 0.1 M HCl. It was diluted to the desired radioactivity concentration in 0.14M NaCl and the pH was adjusted to about 4.5 with NaOH just before use.
as §2

[5] = U(VI), ligand 30 mmol.kg-1 i.p at 3 to 5 min after actinide i.v., kill at 24 h
[6] = U(VI), ligand 30 mmol.kg-1 i.p at 3 to 5 min after actinide i.v., kill at 24 h, pooled
[7] = intraperitoneally three to five minutes after actinide
[8] = Np(V), ligand 30 mmol.kg-1 i.p at 3 to 5 min after actinide i.v., kill at 24 h
[9] = Np(V), ligand 30 mmol.kg-1 i.p at 3 to 5 min after actinide i.v., kill at 24 h, pooled

Cn1ccc(C(=O)NCCN(CCNC(=O)c2ccn(C)c(=O)c2O)CCNC(=O)c2ccn(C)c(=O)c2O)c(O)c1=O [TREN-Me-3,2-HOPO, N,N,N,-Tris[(3-hydroxy-1-methyl-2-oxo-1,2-dihydropyridin-4-yl)carboxamidoethyl]-amine]
percent of injected ^238Pu ± SD at 24 h, tissues: liver [1]: 5.0 ± 2.2^d percent of injected ^238Pu | percent of injected ^238Pu ± SD at 24 h, tissues: skeleton [1]: 10 ± 1.1% of injected ^238Pu | percent of injected ^238Pu ± SD at 24 h, tissues: soft tissue [1]: 2.5 ± 0.8% of injected ^238Pu | percent of injected ^238Pu ± SD at 24 h, whole body [1]: 18 ± 2.7^d percent of injected ^238Pu | percent of injected ^238Pu at 24 h, excreta: feces and GI contents ([1]; pooled samples): 43.3% of injected ^238Pu | percent of injected ^238Pu at 24 h, excreta: urine 0-24 h ([1]; pooled samples): 37% of injected ^238Pu | percent of injected ^238Pu at 24 h, tissues: kidneys ([1]; pooled samples): 0.6% of injected ^238Pu | Pu removal by oral administration (in words) [2]: the more effective in both (by oral and injection) cases | percent of injected actinide ± SD at 24 h, tissues: kidneys [3, 5]: 9.4 ± 6.0^d,e percent of injected actinide | percent of injected actinide ± SD at 24 h, tissues: skeleton [3, 5]: 16 ± 2.4% of injected actinide | percent of injected actinide ± SD at 24 h, tissues: soft tissue [3, 5]: 1.6 ± 0.3% of injected actinide | percent of injected actinide ± SD at 24 h, whole body [3, 5]: 27 ± 8.5^d,e percent of injected actinide | percent of injected actinide ± SD at 24 h, tissues: liver ([3]; U(VI), ligand 30 mmol.kg-1 i.p at 3 to 5 min after actinide i.v., kill at 24 h, livers of some groups pooled): 0.6 ± 0.3% of injected actinide | percent of injected actinide at 24 h, excreta: feces and GI contents [3, 6]: 2.3% of injected actinide | percent of injected actinide at 24 h, excreta: urine 0-24 h [3, 6]: 70% of injected actinide | U burden in the kidneys compared with controls (in words) [3, 7]: more than one-half of the U burden in the kidneys was removed | percent of injected actinide ± SD at 24 h, tissues: skeleton [4, 8]: 34 ± 4.5% of injected actinide | percent of injected actinide ± SD at 24 h, tissues: soft tissue [4, 8]: 3.1 ± 1.1% of injected actinide | percent of injected actinide ± SD at 24 h, whole body [4, 8]: 42 ± 11^d,e percent of injected actinide | percent of injected actinide at 24 h, excreta: feces and GI contents [4, 9]: 17% of injected actinide | percent of injected actinide at 24 h, excreta: urine 0-24 h [4, 9]: 40% of injected actinide | percent of injected actinide at 24 h, tissues: kidneys [4, 9]: 1.0% of injected actinide | Np content of the soft tissues compared with controls (in words) [4, 7]: the Np content of the soft tissues was significantly reduced
